Measured values published in the NIST ThermoML archive (doi:10.1021/je034254m).

Assay: excess molar enthalpy (molar enthalpy of mixing); xn = mol fraction of the nth substance listed
Settings: Liquid, Flow calorimetry

CN1CCCC1=O [N-methylpyrrolidone] + CO
393.15 K, 1790 kPa
Settings	excess molar enthalpy [kcal/mol]
x2 = 0.0576	-0.0354
x2 = 0.1114	-0.0657
x2 = 0.2093	-0.113
x2 = 0.2959	-0.146
x2 = 0.3732	-0.168
x2 = 0.4425	-0.18
x2 = 0.5051	-0.184
x2 = 0.5619	-0.183
x2 = 0.6136	-0.177
x2 = 0.6609	-0.167
x2 = 0.7043	-0.157
x2 = 0.7443	-0.143
x2 = 0.7813	-0.128
x2 = 0.8156	-0.113
x2 = 0.8475	-0.0968
x2 = 0.8772	-0.0817
x2 = 0.905	-0.0652
x2 = 0.931	-0.0488
x2 = 0.9554	-0.0323
x2 = 0.9784	-0.016
x2 = 0.9893	-0.00837

O=S1(=O)CCCC1 [sulfolane] + O
413.15 K, 1820 kPa
Settings	excess molar enthalpy [kcal/mol]
x2 = 0.0621	0.0968
x2 = 0.1183	0.17
x2 = 0.2159	0.284
x2 = 0.3676	0.405
x2 = 0.48	0.443
x2 = 0.5667	0.445
x2 = 0.6355	0.428
x2 = 0.6915	0.401
x2 = 0.738	0.37
x2 = 0.7772	0.337
x2 = 0.8395	0.272
x2 = 0.8648	0.241
x2 = 0.887	0.211
x2 = 0.9067	0.181
x2 = 0.9243	0.152
x2 = 0.9401	0.125
x2 = 0.9544	0.0985
x2 = 0.9674	0.0727
x2 = 0.9792	0.0476
x2 = 0.99	0.0232
